Data taken from patent US20210113586A1, “NEW USE AND METHODS OF MODULATING IMMUNE RESPONSES” (DIAMYD MEDICAL AB, priority 2018, published 2021).

Assays:
Type in all cases: cell-based, human
[1] = system: PBMCs from T1D individuals; experiment: Proliferation of anti-CD3 stimulated PBMCs from T1D donors; conditions: GABA plus picrotoxin
Method: (§1) Peripheral Blood Mononuclear cells (PBMCs) are isolated from blood from donors diagnosed with Type-1 diabetes and healthy controls. Alternatively, CD4-positive cells (T-cells) are further isolated from PBMCs by e.g. MACS beads, FACS or similar technology. […] A reasonable replication, such as 3 cultures of each condition, is performed. A normalized proliferation value for each culture is then calculated by a standard proliferation measurement method, such as by CFSE staining or radioactive thymidine incorporation (requiring additional factors be added during culture) or by staining for proliferation markers.
(§2) In the FIG. 1, the proliferation of cells retrieved from 13 T1D subjects and 15 healthy controls were inspected. […] A normalized proliferation index was calculated for each culture.
The proliferation of freshly isolated human PBMCs or CD4^+ T cells was evaluated with MTT (3-(4,5-Dimethylthiazol-2-yl)-2,5-Diphenyltetrazolium Bromide) assay (Ring et al., 2012). Cells were suspended in complete medium (RPMI 1640 supplemented with 2 mM glutamine, 25 mM HEPES, 10% heat inactivated fetal bovine serum, 100 U/ml penicillin, 10 mg/ml streptomycin, 5 mM R-mercaptoethanol) in a concentration 1 million cells per milliliter. The assay was performed in 96-well plates in duplicates or triplicates, where each well was pre-coated with 3 μg/ml anti-CD3 antibody for 3-5 h at 37° C. Each well was loaded with 100,000 cells. Drugs were added to the wells at the relevant concentrations. The plate was incubated for 68 h at 37° C. (95% O2, 5% CO2) and then, a media-soluble tetrazolium dye MTT was added to a final concentration of 1 mM after which the plate was incubated for additional 4 h. The plate was then centrifuged at 2,000 RPM for 10 min to pellet the insoluble purple formazan crystals. The supernatant culture media was collected, stored at −80° C. and used for analysis of cytokines using the multiplex proximity extension assay (PEA). The formazan crystal pellet was dissolved in DMSO and the plate was read within 10 min using a Multiskan MS plate reader (Labsystems) at 550 nm. […]

[2] = system: responder CD4+ T cells; experiment: Proliferation of anti-CD3 stimulated GABA responder CD4+ T cells from ND individuals; conditions: for effect of agonist on proliferation: 100 nM, FIG. 3f
Method: as §1, §2
(§3) The proliferation of freshly isolated human PBMCs or CD4^+ T cells was evaluated with MTT (3-(4,5-Dimethylthiazol-2-yl)-2,5-Diphenyltetrazolium Bromide) assay (Ring et al., 2012). Cells were suspended in complete medium (RPMI 1640 supplemented with 2 mM glutamine, 25 mM HEPES, 10% heat inactivated fetal bovine serum, 100 U/ml penicillin, 10 mg/ml streptomycin, 5 mM R-mercaptoethanol) in a concentration 1 million cells per milliliter. The assay was performed in 96-well plates in duplicates or triplicates, where each well was pre-coated with 3 μg/ml anti-CD3 antibody for 3-5 h at 37° C. Each well was loaded with 100,000 cells. Drugs were added to the wells at the relevant concentrations. The plate was incubated for 68 h at 37° C. (95% O2, 5% CO2) and then, a media-soluble tetrazolium dye MTT was added to a final concentration of 1 mM after which the plate was incubated for additional 4 h. The plate was then centrifuged at 2,000 RPM for 10 min to pellet the insoluble purple formazan crystals. The supernatant culture media was collected, stored at −80° C. and used for analysis of cytokines using the multiplex proximity extension assay (PEA). The formazan crystal pellet was dissolved in DMSO and the plate was read within 10 min using a Multiskan MS plate reader (Labsystems) at 550 nm. The optical density value was used as the proliferation index value. Drugs were purchased from Sigma-Aldrich or Tocris (Bristol, UK).

[3] = system: GABAA receptors; experiment: Patch-clamp single-channel current recording in CD4+ T cells; conditions: picrotoxin 100 μM; FIG. 3i
Method: GABA-activated currents were recorded by the patch-clamp technique as previously described (Bjurstom et al., 2008, Jin et al., 2011a). Extracellular recording solution contained (in mM): 145 NaCl, 3 KCl, 1 CsCl, 1 CaCl2, 1 MgCl2, 10 glucose and 10 TES; the pH was adjusted to 7.4 with NaOH. To record in the whole-cell configuration, the pipette solution contained (in mM): 136 CsCl, 20 KCl, 1 MgCl2, 3 MgATP and 10 TES; pH was adjusted to 7.3 with CsOH. The pipette solution for the cell-attached configuration contained (in mM): 69 NaCl, 5 KCl, 75 CsCl, 1 CaCl2, 1 MgCl2 and 10 TES; pH was adjusted to 7.4 with NaOH. […] The pipette potential (Vp) was −80 mV (hyperpolarizing) in the whole-cell configuration and −60 mV (depolarizing) in the cell-attached configuration.

[4] = system: responder CD4+ T cells; experiment: Multiplex PEA of cytokines released into culture medium by responder CD4+ T cells; conditions: GABA plus 100 μM picrotoxin
Method: as §3
Plasma samples, and culture media samples that were collected from plate wells at the end of the proliferation assay, were analyzed by multiplex PEA with an Olink Inflammation […] panel, targeting 92 proteins related to inflammation (Olink Proteomics, Uppsala, Sweden) as previously described (Edvinsson et al., 2017, Assarsson et al., 2014, Larsson et al., 2015, Larssen et al., 2017). Briefly, 1 μl of sample (plasma samples or cell culture media samples) or negative control was mixed with 3 μl probe solution containing a set of 92 paires DNA-oligonucleotide-conjugated antibodies. Upon recognition of a target protein by a pair of probes, the DNA oligonucletodies on the antibodies are brought in proximity and hybridize to each other, followed by enzymatic DNA polymerization to form a new DNA molecule. The newly formed DNA molecule is then amplified and quantified using a microfluidic real-time qPCR, BioMark™ HD (Fluidigm, South San Francisco, Calif., USA). The generated quantification cycle (Cq) values are normalized against spiked-in controls to convert Cq values to Normalized Protein eXpression (NPX) value on log2 scale. NPX is an arbitrary unit, which is positively correlated to protein concentration. These NPX data were then converted to linear data, using the formula 2^NPX, prior to further statistical analysis. Limit of detection (LOD) for each protein was defined as three standard deviations above the background. Proteins with levels below LOD were excluded from further data analysis.

[5] = FIG. 5b-c legend, GABA concentration and cell group not given

## picrotoxin [reference compound]
[1]; Example 1, FIG. 1D
  effect on GABA-reduced proliferation: reversed
[1]; Example 2, FIG. 3b
  effect on GABA inhibition of proliferation: reversed
[2]; Example 1, FIG. 1B, GABA plus picrotoxin
  effect on GABA-reduced proliferation: reversed
[2]; picrotoxin, FIG. 3e
  effect on 500 nM GABA-induced inhibition of proliferation: partially reversed
[3]
  effect on GABA-activated single-channel currents: blocked
[4]; [5]
  CCL19, 2^NPX normalized to controls, mean and SEM: 1.72±0.74
  CCL20, 2^NPX normalized to controls, mean and SEM: 1.43±0.51
  CXCL11, 2^NPX normalized to controls, mean and SEM: 1.55±0.51
[4]; FIG. 5b, c
  effect on GABA inhibition of cytokine release: reversed

## NCC(CC(=O)O)c1ccc(Cl)cc1 (stereo not shown) [baclofen]
[2]
  effect of agonist on proliferation: ineffective

## CCOC(OCC)P(=O)(O)CCCNCc1ccc(Cl)c(Cl)c1 [CGP52432]
[2]; 50 μM, FIG. 3e
  effect of antagonist on proliferation: ineffective

## NCc1cc(=O)[nH]o1 [muscimol]
[2]
  effect of agonist on proliferation: inhibited the proliferation similar to GABA

## NC/C=C/C(=O)O [TACA]
[2]
  effect of agonist on proliferation: inhibited the proliferation similar to GABA
